Experimental data reported in patent publication US11965041B2, “N-methylated cyclic peptides and their prodrugs” (TECHNISCHE UNIVERSITAET MUENCHEN, priority 2017, dated 2024).
“Also recorded” adds a separate entry of the source. Read-outs that look alike come from different tables or passages of the source. Numbered stars: 1 amine (or outer) side, 2 acyl side, 3 side chain; on linkers, the order of the positions; unused ones are H or OH. Square brackets hold non-standard residues; d marks the D form. Peptide text beside a SMILES is read from it. X3 = CCCCCCOC(=O)N=C(NCCC[C@H](C(=O)[*:2])N(C)[*:1])NC(=O)OCCCCCC; X1 = CCCCCCOC(=O)N=C(NCCC[C@@H](N[*:1])C(=O)[*:2])NC(=O)OCCCCCC; X2 = CCCCCCOC(=O)N=C(N)NCCC[C@H](N[*:1])C(=O)[*:2]; dNMeV = CN[C@@H](C(=O)O)C(C)C; NMeA = CN[C@@H](C)C(=O)O

How the values were obtained:
[1] = Log D, octanol/PBS distribution coefficient; conditions: for logD at 1 h: pH 7.4, LogD
[2] = Caco-2 permeability study (Examples 1, 2 and 4, Table 3); assay type: in vitro ADME, human; conditions: for Papp B→A at 150 min, 10 μg/ml / Papp A→B at 150 min, 10 μg/ml: human; for efflux ratio: Table 3
Procedure: The culture growth medium consisted of DMEM supplemented with 10% heat-inactivated FBS, 1% MEM-NEAA, 2 mM 1-glutamine, 1 mM sodium pyruvate, 50,000 units Penicillin G Sodium and 50 mg Streptomycin Sulfate (Biological Industries). The medium was replaced every other day.
Cells (passage 55-60) were seeded at density of 25×10^5 cells/cm^2 on untreated culture inserts of polycarbonate membrane with 0.4 μm pores and surface area of 1.1 cm^2. Culture inserts containing Caco-2 monolayer were placed in 12 mm transwell plates (Corning). Culture medium was replaced every other day. Transepithelial Electrical Resistance (TEER) values were measured by Millicell ERS-2 System (Millipore) a week after seeding up to experiment day (21-23 days) to ensure proliferation and differentiation of the cells. When the cells were fully differentiated and TEER values became stable (200-500 Ω·cm^2). The TEER values were compared to control inserts containing only the medium.
The experiment was initiated by replacing the medium from both sides by apical (600 μl) and basolateral (1500 μl) buffers, both warmed to 37° C. The Cells were incubated with the buffers solutions for 30 min at 37° C. on a shaker (100 cycles/min). The apical buffer was replaced by apical buffer containing 10 μg/ml of the cyclic peptides of the invention. 50 μl samples were taken from the apical side immediately at the beginning of the experiment, resulting in 550 μl apical volume during the experiment.
Permeability Coefficient (Papp) for each compound was calculated from the linear plot of drug accumulated versus time, using the following equation:
Where dq/dt is steady state appearance rate of the compound on the receiver side, Co is the initial concentration of the drug on the donor side, and A is the exposed tissue surface area (1.1 cm^2).
Transport studies were performed through the Caco-2 monolayer mounted in an Ussing-type chamber set-up with continuous trans-epithelial electrical resistance (TEER) measurements to assure TEER between 800 and 1200 Sr cm^2. HBSS supplemented with 10 mM MES and adjusted to pH 6.5 were used as transport medium in the donor compartment and pH 7.4 in the acceptor compartment. The donor solution contained the test compound.
Permeability mechanism of compounds is studied by evaluating the Papp of a compound from the apical to the basolateral (A-to-B) membrane and its Papp from the basolateral to the apical membrane (B-to-A). The A-to-B assay simulates passive and transporter-mediated permeability. The B-to-A assay is essential complementary experiment indicative of the activity of P-gp. The ratio of the A-to-B and B-to A Papps (efflux ratio) is calculated to determine the permeability mechanism.

human αvβ3-integrin = biological target: T1, human αvβ3-integrin (Homo sapiens, UniProt P05106+P06756); assay: Solid-phase integrin binding assay, αvβ3
T1 construct: purchased R&D

[3] = Caco-2 bidirectional permeability with or without verapamil (Example 6); conditions: human, 90 min, without verapamil; for Papp A→B at 90 min, 10 μM: Caco-2, pH 7.4, Papp (AB); for Papp B→A at 90 min, 10 μM: Caco-2, pH 7.4, Papp (BA)
Caco-2 cells = assay: as above
[4] = pH 7.4, LogD
in vitro = conditions: human, Caco-2, pH 7.4
[5] = for Papp A→B: Caco-2, Papp (AB); for Papp B→A: Caco-2, Papp (BA)
[6] = Metabolic stability in rat plasma; assay type: in vitro ADME; conditions: 37° C., up to 90 minutes
Procedure: The enzymatic reactions were performed as follows: 2 mM stock solutions of the tested compounds were diluted with serum or purified brush border membrane vesicles (BBMVs) solution to a final concentration of 0.5 mM. During incubation at 37° C. samples were taken for a period of 90 minutes. The enzymatic reaction was stopped by adding 1:1 v/v of ice cold acetonitrile and centrifuge (4000 g, 10 min) before analysis. Preparation of BBMVs: The BBMVs was prepared from combined duodenum, jejunum, and upper ileum (male Wistar rats) by a Ca^++ precipitation method. Purification of the BBMVs was assayed using GGT, LAP and alkaline phosphatase as membrane enzyme markers
Peptides 12 and 12p were subjected to rat plasma and followed their degradation. Rat plasma is known to be rich with esterases.

[7] = Pharmacokinetic study in rats after oral administration; assay type: in vivo, Wistar rats; conditions: rat, oral 5 mg/kg; peptide 12 measured in plasma; 12P given as dispersed 12P SNEDDS
Procedure: In Vivo Studies. Male Wistar rats (Harlan, Israel), 275-300 g in weight, were used for all surgical procedures. Animals were anesthetized for the period of surgery by intraperitoneal injection of 1 mL/kg of ketamine/xylazine solution (9:1), placed on a heated surface, and maintained at 37° C. (Harvard Apparatus Inc., Holliston, MA). An indwelling cannula was placed in the right jugular vein of each animal for systemic blood sampling, by a method described before. The cannula was tunneled beneath the skin and exteriorized at the dorsal part of the neck. After completion of the surgical procedure, the animals were transferred to cages to recover overnight (12-18 h). During this recovery period, food but not water was deprived. Throughout the experiment, free access to food was available 4 h post oral administration. Animals were randomly assigned to the different experimental groups. […] Dispersed 12P SNEDDS (5 mg/kg) was administered to the animals by oral gavage (n=3). Systemic blood samples (0.35 mL) were taken at 5 min predose, 20, 40, 60, 90, 180, 240, and 360 min postdose. To prevent dehydration, equal volumes of physiological solution were administered to the rats following each withdrawal of blood sample. Plasma was separated by centrifugation (5322 g, 10 min) and stored at −20° C. pending analysis. In the 12P pharmacokinetic study, the parent peptide, 12, was analytically determined.
Pharmacokinetic Analysis. The area under the plasma concentration-time curve (AUC) was calculated by using the trapezoidal rule with extrapolation to infinity by dividing the last measured concentration by the elimination rate constant (kel). The elimination rate constant values were determined by a linear regression analysis using the last points on the logarithmic plot of the plasma concentration versus the time curve. Pharmacokinetic parameters, such Tmax, Cmax, clearance (CL), volume of distribution (V), and bioavailability, were calculated using noncompartmental analysis.
Analytical Methods. Plasma or BBMV samples were spiked with metoprolol (1.5 μg/mL) as an internal standard. ACN was added to each sample (2:1) and vortex-mixed for 1 min. The samples were then centrifuged (14 635 g, 10 min), and the supernatant was transferred to fresh glass tubes and evaporated to dryness (Vacuum Evaporation System, Labconco, Kansas City, MO, USA). Then, the glass tubes were reconstituted in 80 μL of mobile phase and centrifuged a second time (14 635 g, 10 min). The amount of the compounds was determined using an HPLC-MS Waters 2695 Separation Module, equipped with a Micromass ZQ detector. The resulting solution was injected (10 μL) into the HPLC system. The system was conditioned as follows: for parent drug peptides (including 12), a Kinetex 2.6 μm HILIC 100 Å, 100 mm×2.1 mm column (Phenomenex, Torrance, CA, USA), an isocratic mobile phase, and an acetonitrile:water:ammonium acetate buffer 50 mM (70:10:20, v/v/v) was used; and for the prodrug peptides (including 12P), a Luna (Phenomenex) 3 μm C8 100 Å, 100 mm×2.0 mm column and an isocratic mobile phase of ACN:water supplemented with 0.1% formic acid (70:30, v/v) and a flow rate of 0.2 mL/min at 25° C. was used. The limit of quantification for all of the peptides and prodrugs was 25 ng/mL.
The pharmacokinetic in-vivo study allows a further evaluation of the prodrug concept in the whole animal. The PK studies were performed in conscious Wistar male rats. An indwelling cannula was implanted in the jugular vein 24 hours before the PK experiment to allow full recovery of the animals from the surgical procedure. Animals (n=4) received either an IV bolus dose or oral dose of the investigated compound. Blood samples (with heparin, 15 U/ml) were collected at several time points for up to 6 hours post administration and was assayed by HPLC-MS method. Non-compartmental pharmacokinetic analysis was performed using WinNonlin software.

[8] = Caco-2, Table 3, n = 3, read-out: Papp AB
[9] = Caco-2, Table 3, n = 3, read-out: Papp BA
[10] = pH 7.4, reported value (mean or bound)

T1 sequence (P06756 31-992 limits assumed): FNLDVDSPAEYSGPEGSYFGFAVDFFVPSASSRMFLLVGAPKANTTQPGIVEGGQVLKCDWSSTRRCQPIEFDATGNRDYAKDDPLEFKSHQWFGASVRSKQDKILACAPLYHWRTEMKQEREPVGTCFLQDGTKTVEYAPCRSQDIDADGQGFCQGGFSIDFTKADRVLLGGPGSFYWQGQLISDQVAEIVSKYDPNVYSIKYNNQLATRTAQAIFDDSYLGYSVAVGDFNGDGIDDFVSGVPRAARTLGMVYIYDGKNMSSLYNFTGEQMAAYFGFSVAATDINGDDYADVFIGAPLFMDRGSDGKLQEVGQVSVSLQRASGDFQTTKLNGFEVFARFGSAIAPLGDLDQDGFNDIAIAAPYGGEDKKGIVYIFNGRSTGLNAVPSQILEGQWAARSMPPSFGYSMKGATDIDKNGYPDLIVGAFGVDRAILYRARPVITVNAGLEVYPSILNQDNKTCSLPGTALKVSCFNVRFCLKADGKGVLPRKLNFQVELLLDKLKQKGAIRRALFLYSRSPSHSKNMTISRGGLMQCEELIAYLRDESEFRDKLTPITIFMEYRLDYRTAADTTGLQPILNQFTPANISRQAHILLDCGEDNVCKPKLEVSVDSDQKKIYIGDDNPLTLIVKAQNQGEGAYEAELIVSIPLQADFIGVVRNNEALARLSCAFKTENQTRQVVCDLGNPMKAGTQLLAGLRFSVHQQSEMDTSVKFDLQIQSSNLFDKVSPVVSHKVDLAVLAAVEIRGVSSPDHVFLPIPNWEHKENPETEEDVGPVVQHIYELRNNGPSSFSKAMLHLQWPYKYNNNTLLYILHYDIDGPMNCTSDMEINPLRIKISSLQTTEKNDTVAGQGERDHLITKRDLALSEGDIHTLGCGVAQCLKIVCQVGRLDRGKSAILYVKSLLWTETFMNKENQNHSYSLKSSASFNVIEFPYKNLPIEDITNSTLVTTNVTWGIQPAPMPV
T1 sequence (P05106 27-718 limits assumed): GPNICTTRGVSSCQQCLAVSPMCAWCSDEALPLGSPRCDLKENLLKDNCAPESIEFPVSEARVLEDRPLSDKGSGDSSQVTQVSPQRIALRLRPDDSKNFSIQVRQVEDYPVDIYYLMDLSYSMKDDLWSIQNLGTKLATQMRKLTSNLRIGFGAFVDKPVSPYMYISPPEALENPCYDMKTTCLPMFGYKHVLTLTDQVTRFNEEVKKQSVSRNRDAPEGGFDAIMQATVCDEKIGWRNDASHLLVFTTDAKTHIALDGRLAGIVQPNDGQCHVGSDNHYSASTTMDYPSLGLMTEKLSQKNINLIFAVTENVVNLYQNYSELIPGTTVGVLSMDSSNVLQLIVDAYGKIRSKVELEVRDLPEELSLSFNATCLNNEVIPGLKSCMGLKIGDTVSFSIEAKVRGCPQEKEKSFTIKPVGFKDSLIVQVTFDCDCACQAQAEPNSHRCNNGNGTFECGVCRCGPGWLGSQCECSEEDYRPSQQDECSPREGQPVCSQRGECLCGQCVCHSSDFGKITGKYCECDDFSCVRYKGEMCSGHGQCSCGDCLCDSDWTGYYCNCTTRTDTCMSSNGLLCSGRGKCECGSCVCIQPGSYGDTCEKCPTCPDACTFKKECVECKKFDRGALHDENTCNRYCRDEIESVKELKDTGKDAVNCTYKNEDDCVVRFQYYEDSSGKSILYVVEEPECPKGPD

CC(C)[C@@H]1C(=O)N[C@@H](CCCNC(=N)N)C(=O)NCC(=O)N[C@@H](CC(=O)O)C(=O)N[C@@H](C)C(=O)N(C)[C@@H](C)C(=O)N1C [Peptide 29, c(*vRGDA*A)]
LogD, pH 7.4, reported value (mean or bound) ([1]; octanol/PBS pH 7.4): <−1 | logD at 1 h ([1]; pH 7.4, reported value (mean or bound), octanol/PBS pH 7.4): < -1 | logD at 1 h ([1]; pH 7.4, single determinations, octanol/PBS pH 7.4, triplicate values): -1.75 | Papp B→A at 150 min, 10 μg/ml ([2]; Caco-2, Table 3, n = 3): 0.15 ± 0.01 ×10⁻⁶ cm/s | Papp A→B at 150 min, 10 μg/ml [2, 8]: 0.07 ± 0.01 ×10⁻⁶ cm/s | affinity for αvβ3, in words (human αvβ3-integrin): subnanomolar affinity; also recorded: subnanomolar IC50 | Papp A→B at 90 min, 10 μM ([3]; Mean, 10 μM): 0.7 ×10⁻⁶ cm/s | Papp A→B at 90 min, 10 μM ([3]; replicate 1, 10 μM): 1 ×10⁻⁶ cm/s | Papp A→B at 90 min, 10 μM ([3]; replicate 2, 10 μM): 0.2 ×10⁻⁶ cm/s | Papp A→B at 90 min, 10 μM ([3]; replicate 3, 10 μM): 0.9 ×10⁻⁶ cm/s | Papp B→A at 90 min, 10 μM ([3]; Mean, 10 μM): 0.3 ×10⁻⁶ cm/s | Papp B→A at 90 min, 10 μM ([3]; replicate 1, 10 μM): 0.3 ×10⁻⁶ cm/s | Papp B→A at 90 min, 10 μM ([3]; replicate 2, 10 μM): 0.4 ×10⁻⁶ cm/s | Papp B→A at 90 min, 10 μM ([3]; replicate 3, 10 μM): 0.2 ×10⁻⁶ cm/s | Net efflux (Papp (BA) / Papp (AB)), in the presence of Verapamil (Caco-2 cells; verapamil 100 μM): 0.1 | Net efflux (Papp (BA) / Papp (AB)) (Caco-2 cells; without verapamil): 0.4

CCCCCCOC(=O)N=C(NCCC[C@H]1NC(=O)[C@H](C)N(C)C(=O)[C@H](C)N(C)C(=O)[C@H](C)NC(=O)[C@H](CC(=O)OC)NC(=O)CNC1=O)NC(=O)OCCCCCC [Peptide 23P, c(r(Hoc)2GD(OMe)A*A*A)] (cyclo(A[NMeA][NMeA][X1]GD(OMe)))
Papp A→B [2, 8]: 1.77 ± 0.55 ×10⁻⁶ cm/s | Papp B→A [2, 9]: 74.8 ± 20.4 ×10⁻⁶ cm/s | efflux ratio ([2]; Caco-2): 42.2

C[C@@H]1NC(=O)[C@H](CC(=O)O)NC(=O)CNC(=O)[C@@H](CCCNC(=N)N)NC(=O)[C@H](C)N(C)C(=O)[C@H](C)N(C)C1=O [Peptide 23, c(rGDA*A*A)]
Papp B→A at 150 min, 10 μg/ml ([2]; Caco-2, Table 3, n = 3): 1.34 ± 0.03 ×10⁻⁶ cm/s | Papp A→B at 150 min, 10 μg/ml [2, 8]: 0.61 ± 0.09 ×10⁻⁶ cm/s

C[C@@H]1NC(=O)[C@H](C)N(C)C(=O)[C@H](C)NC(=O)[C@H](CC(=O)O)NC(=O)CNC(=O)[C@@H](CCCNC(=N)N)N(C)C1=O [Peptide 5, c(*rGDA*AA)]
Papp A→B at 150 min, 10 μg/ml ([2]; Caco-2, running text, unit inferred, read-out: Caco-2 A-to-B Papp): 0.3 ×10⁻⁶ cm/s | Papp B→A at 150 min, 10 μg/ml ([2]; Caco-2, Table 3, n = 3): 0.42 ± 0.11 ×10⁻⁶ cm/s | Papp A→B at 150 min, 10 μg/ml [2, 8]: 0.38 ± 0.01 ×10⁻⁶ cm/s

CCCCCCOC(=O)N=C(NCCC[C@@H]1C(=O)NCC(=O)N[C@@H](CC(=O)OC)C(=O)N[C@@H](C)C(=O)N(C)[C@@H](C)C(=O)N[C@@H](C)C(=O)N1C)NC(=O)OCCCCCC [Peptide 5P, c(*r(Hoc)2GD(OMe)A*AA)] (cyclo(A[NMeA]A[X3]GD(OMe)))
Papp B→A [2, 9]: 22.1 ± 3.58 ×10⁻⁶ cm/s | Papp B→A ([2]; Caco-2, running text, unit inferred, read-out: Caco-2 B-to-A Papp): 21.2 ×10⁻⁶ cm/s | Papp A→B ([2]; Caco-2, unit inferred, read-out: Caco-2 A-to-B Papp (converted)): 0.6 ×10⁻⁶ cm/s | efflux ratio ([2]; Caco-2): 36.7

C[C@@H]1NC(=O)[C@H](CC(=O)O)NC(=O)CNC(=O)[C@H](CCCNC(=N)N)NC(=O)[C@@H](Cc2ccccc2)N(C)C(=O)[C@H](C)N(C)C1=O [Peptide 30, c(*fRGDA*A)]
affinity for αvβ3, in words (human αvβ3-integrin): subnanomolar affinity | IC50 (human αvβ3-integrin; Table 1): 0.6 ± 0.2 nM

CCCCCCOC(=O)N=C(N)NCCC[C@@H]1NC(=O)[C@@H](C(C)C)N(C)C(=O)[C@H](C)N(C)C(=O)[C@H](C)NC(=O)[C@H](CC(=O)OC)NC(=O)CNC1=O [#29P-Hoc] (cyclo(A[NMeA][dNMeV][X2]GD(OMe)))
permeability in the PAMPA-GIT model system: low permeability | logD [4, 10]: 1.85 | logD ([4]; pH 7.4, single determinations): 1.91 | efflux ratio at 90 min, 10 µM (in vitro): 1 | Papp A→B ([5]; Mean): 0.3 ×10⁻⁶ cm/s | Papp A→B ([5]; replicate 1): 0.3 ×10⁻⁶ cm/s | Papp A→B ([5]; replicate 2): 0.3 ×10⁻⁶ cm/s | Papp A→B ([5]; replicate 3): 0.2 ×10⁻⁶ cm/s | Papp B→A ([5]; Mean): 0.3 ×10⁻⁶ cm/s | Papp B→A ([5]; replicate 1): 0.2 ×10⁻⁶ cm/s | Papp B→A ([5]; replicate 2): 0.2 ×10⁻⁶ cm/s | Papp B→A ([5]; replicate 3): 0.3 ×10⁻⁶ cm/s

CCCCCCOC(=O)N=C(NCCC[C@@H]1NC(=O)[C@H](C(C)C)N(C)C(=O)[C@@H](Cc2ccccc2)NC(=O)[C@H](CC(=O)OC)NC(=O)CNC1=O)NC(=O)OCCCCCC [Cil.-P, c(f*VR(Hoc)2GD)]
Permeability, replicate 1 (PAMPA, pH 7.4): Outlier −8.1 Log10[10^−6 cm/s] | logD [4, 10]: 3.95 | logD ([4]; pH 7.4, single determinations): 3.76 | efflux ratio at 90 min, 10 µM (in vitro): 1.1 | Papp A→B ([5]; Mean): 0.3 ×10⁻⁶ cm/s | Papp A→B ([5]; replicate 1): 0.6 ×10⁻⁶ cm/s | Papp A→B ([5]; replicate 2): 0.2 ×10⁻⁶ cm/s | Papp A→B ([5]; replicate 3): 0.2 ×10⁻⁶ cm/s | Papp B→A ([5]; Mean): 0.3 ×10⁻⁶ cm/s | Papp B→A ([5]; replicate 1): 0.4 ×10⁻⁶ cm/s | Papp B→A ([5]; replicate 2): 0.3 ×10⁻⁶ cm/s | Papp B→A ([5]; replicate 3): 0.3 ×10⁻⁶ cm/s

C[C@@H]1NC(=O)[C@H](CC(=O)O)NC(=O)CNC(=O)[C@H](CCCNC(=N)N)NC(=O)[C@@H](C)N(C)C(=O)[C@H](C)N(C)C1=O [Peptide 12, c(*aRGDA*A)]
metabolic stability in rat plasma, in words [6]: remained stable | Papp B→A at 150 min, 10 μg/ml ([2]; Caco-2, Table 3, n = 3): 0.12 ± 0.01 ×10⁻⁶ cm/s | Papp A→B at 150 min, 10 μg/ml [2, 8]: 0.04 ± 0.02 ×10⁻⁶ cm/s | Kel [7]: 0.04 ± 0.005 min⁻¹
